The test system of assay [1] is Saccharomyces cerevisiae. As to the kind of experiment: DNA damaging activity against wild type (Rad+) yeast assessed as drug level required to produce 12 mm zone of inhibition. Format: functional.
In assay [2] the test system is Saccharomyces cerevisiae. Description: DNA damaging activity against DNA repair-deficient RS 322YK (rad 52Y) yeast assessed as drug level required to produce 12 mm zone of inhibition. In kind it is functional.
For another assay, the target named is Prolyl endopeptidase (Elizabethkingia meningoseptica, UniProt P27028). As to the kind of experiment: Inhibition of Flavobacterium meningosepticum […].
Sequence of Prolyl endopeptidase (P27028 21-705 limits assumed): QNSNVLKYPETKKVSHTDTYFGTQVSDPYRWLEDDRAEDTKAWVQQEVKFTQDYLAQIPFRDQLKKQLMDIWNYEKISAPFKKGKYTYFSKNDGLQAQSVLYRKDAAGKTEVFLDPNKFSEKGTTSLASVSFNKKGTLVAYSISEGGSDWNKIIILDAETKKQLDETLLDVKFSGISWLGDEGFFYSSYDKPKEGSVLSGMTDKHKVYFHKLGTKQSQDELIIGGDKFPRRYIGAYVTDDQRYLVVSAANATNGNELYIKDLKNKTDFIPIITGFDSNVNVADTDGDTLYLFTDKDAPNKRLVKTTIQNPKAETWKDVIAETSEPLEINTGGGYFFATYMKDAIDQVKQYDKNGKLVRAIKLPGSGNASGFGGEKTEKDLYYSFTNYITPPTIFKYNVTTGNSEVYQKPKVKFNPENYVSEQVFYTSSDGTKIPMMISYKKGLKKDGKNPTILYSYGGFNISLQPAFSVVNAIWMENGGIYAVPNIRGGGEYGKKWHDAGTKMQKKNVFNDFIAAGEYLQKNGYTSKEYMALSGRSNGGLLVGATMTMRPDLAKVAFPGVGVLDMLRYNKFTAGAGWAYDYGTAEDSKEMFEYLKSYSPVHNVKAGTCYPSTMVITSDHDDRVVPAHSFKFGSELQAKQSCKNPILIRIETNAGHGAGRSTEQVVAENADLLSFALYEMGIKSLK

Our source for the IC12 and IC50 values is ChEMBL document CHEMBL1147218, “New bioactive diterpene polyesters from Euphorbia decipiens” (J Nat Prod, 2003).

As usually defined, the IC50 is the midpoint of a concentration-inhibition curve.

For `CC(=O)OC[C@@]12[C@H](OC(C)=O)[C@H]3[C@@H](OC(C)=O)[C@@H](C)C[C@]3(OC(C)=O)C(=O)[C@@]3(C)OC(C)(C)[C@@H](C=C[C@H]1OC(=O)c1ccccc1)[C@H]23`, the IC12 amounted to 1090 µg/mL in the assay with Saccharomyces cerevisiae [1] and 750 µg/mL in the assay with Saccharomyces cerevisiae [2].

As to `CC(=O)OC[C@@]12[C@H](OC(C)=O)[C@H]3[C@@H](OC(C)=O)[C@@H](C)C[C@]3(O)C(=O)[C@@]3(C)OC(C)(C)[C@@H](C=C[C@H]1OC(=O)c1ccccc1)[C@H]23`, it took 16.9 µM to reach half-maximal inhibition against Prolyl endopeptidase (IC50).

For the compound `CC[C@@]1(O)C(=O)OCc2c1cc1n(c2=O)Cc2cc3ccccc3nc2-1` [CAMPTOTHECIN], the IC12 came to 75 µg/mL with Saccharomyces cerevisiae [1] and 12 µg/mL with Saccharomyces cerevisiae [2].
